Measurements published in EP0155454A1, “Use of pirenzepine, its salts or medicaments containing pirenzepine for the treatment of colon disorders” (Dr. Karl Thomae GmbH, priority 1984, dated 1985).
Counter-ions that a name gives are not always drawn. Like-named read-outs stand apart in the source and are kept apart here.

How the values were obtained:
Dickdarmmotorik [1] = conditions: in vivo; cited from earlier work
Darmmotilität = conditions: cited from earlier work
Colon irritabile = assay: Double-blind cross-over clinical study versus placebo in patients with Colon irritabile; format: in vivo, Patienten; conditions: for symptomfrei oder gebessert: 2 x 25 mg/Tag, 2 weeks per period, 30 Patienten
Source text: Bei klinischen Untersuchungen an 30 Patienten mit dem angegebenen Beschwerdebild Colon irritabile, wobei sich trotz umfangreicher diagnostischer Maßnahmen bei keinem der Patienten ein pathologischer Befund ergab, wurde Pirenzepin-dihydrochloridmonohydrat zum Einsatz gebracht. Da es für einen möglichen Therapieerfolg bei der geschilderten Indikation keinen objektivierbaren Parameter gibt, wurde jeder Patient in Doppelblind-cross over-Technik entweder mit Pirenzepin oder mit Placebo behandelt. Die Dosierung betrug 2 x 25 mg/Tag. Der Versuchsplan ermöglichte also bei jedem Patienten einen zweimal 2-wöchigen Beobachtungszeitraum. Die geprüften Parameter waren Obstipation, Diarrhoe, Schafkotstuhl, wechselnde Stühle und Schleimabsonderung. Die Beurteilung der therapeutischen Wirkung erfolgte vor Beginn der Behandlung und nach jedem einzelnen Versuchsabschnitt. Jeder Patient erhielt einen weitgefächerten Score, um seine subjektiven Eindrücke festzuhalten. Diese Angaben wurden ausgewertet, wobei die generalisierten Befunde bezüglich der Einzelsymptomatik in der nachstehenden Tabelle aufgeführt sind: […]

Dickdarmmotorik [2] = assay: Neostigmine-stimulated colon motility in healthy volunteers, acute intravenous pirenzepine; format: in vivo, freiwilligen Probanden
Source text: Pirenzepin löst einen krankhaften Spasmus im Darmtrakt ohne den Darm zu lähmen. Um dieses zu beweisen, bzw. um zu überprüfen, ob Pirenzepin anders als Atropin die gestörten motorischen Verhältnisse zu beeinflussen in der Lage ist und sich damit von Anticholinergika, Atropin oder Atropinderivaten unterscheidet, wurde die Dickdarmmotorik bei freiwilligen Probanden mit Neostigmin stimuliert und im Akutversuch Pirenzepin intravenös in therapeutischen Dosen verabreicht. In einer zweiten Serie wurden die Druck- und Motorikverhältnisse bei Patienten mit Colon irritabile vor und nach einer oralen Therapie mit Pirenzepin geprüft. Die dabei erzielten Ergebnisse lassen sich wie folgt zusammenfassen: Im Vergleich zur basalen Untersuchungsperiode konnte unter Neostigminstimulation an gesunden Testpersonen eine signifikante Zunahme der Druckamplitude um 21 %, der Kontraktionsdauer um 76 % und ein Anstieg des Motilitätsindex um 82 % beobachtet werden.

[3] = intravenös, therapeutic doses, after Neostigmin stimulation

## CN1C2CCC1CC(OC(=O)C(CO)c1ccccc1)C2 (racemic) [Atropin]
Dickdarmmotorik [1]
  propulsive motorische Kontraktionen: zum Erliegen bringt
Darmmotilität; in vivo
  Verminderung der Darmmotilität: eine Verminderung der Darmmotilität bewirkt

## CN1CCN(CC(=O)N2c3ccccc3C(=O)Nc3cccnc32)CC1 [Gastrozepin, 5,11-Dihydro-11 [(4-methyl-piperazin-1-yl)acetyl]-6H-pyrido [2,3-b] [1,4] benzodiazpin-6-on-dihydrochloridmonohydrat]
Colon irritabile; Symptom Diarrhoe
  symptomfrei oder gebessert: 84%
Colon irritabile; Symptom Obstipation
  symptomfrei oder gebessert: 72%
Colon irritabile; Symptom Schafkotstuhl
  symptomfrei oder gebessert: 80%
Colon irritabile; Symptom Schleimabsonderung
  symptomfrei oder gebessert: 83%
Colon irritabile; Symptom Wechselnde Stühle
  symptomfrei oder gebessert: 89%

## CN(C)C(=O)Oc1cccc([N+](C)(C)C)c1 [Neostigmin]
Dickdarmmotorik [2]; in vivo
  Anstieg des Motilitätsindex: 82%
  Zunahme der Druckamplitude: 21%
  Zunahme der Kontraktionsdauer: 76%

## CN1CCN(CC(=O)N2c3ccccc3C(=O)Nc3cccnc32)CC1 [Pirenzepin, 5,11-Dihydro-11-[(4-methyl-piperazin-1-yl)-acetyl)-6H-pyrido [2,3-b] [1,4] benzodiazepin-6-on]
Colon irritabile; all tested parameters
  Unterschiede zwischen der Placebogruppe und der Verumgruppe: signifikante bis hochsignifikante Unterschieden zugunsten von Pirenzepin
Colon irritabile; overall assessment
  Wirksamkeit in der Indikation Colon irritabile: sehr gut wirksam
Dickdarmmotorik [2]; [3]
  Abnahme der Druckamplitude: bis zum Ausgangsniveau
  Abnahme der Kontraktionsdauer: bis zum Ausgangsniveau
  Abnahme der propulsiven Kontraktionen: nicht zu registrieren
  Abnahme des Motilitätsindex: bis zum Ausgangsniveau
Dickdarmmotorik [2]; summary statement
  Neostigmin-induzierte segmentale Kolonkontraktionen: vermindert
Darmmotilität; therapeutische Höchstdosen
  Verminderung der Darmmotilität: nicht sichtbar
